Key:
[1] = Stability data of process systems (Example 3-23); format: physicochemical; settings: 7 days
Procedure: The following stability data was generated and referenced in one or more of the prior examples. Stability of the following systems were studied and found to be stable for at least 7 days: Stability of Compound 3 HCl in MeOH/TBME at 40° C.; Stability of reaction mixture at 40° C. (amount of maribavir); Stability of biphasic mixture at 40° C. (before extraction); Stability of biphasic mixture at 40° C. (during last NaCl washing); Stability of reaction mixture after final distillation step at Stability of biphasic mixture at 75° C.; Stability of reaction mixture after final distillation step at 90° C.; Stability of crystallization mixture after dosage of 2nd portion of toluene at reflux; Stability of crystallization at 20° C.; Stability of mixture during slurry wash at 20-25° C.; Stability of maribavir in the mother liquor at 20-25° C.; Stability of wet cake at 70° C.; and Stability of dry cake at 70° C.

[2] = format: physicochemical; settings: pH 4
Excerpt: A preliminary test was done to determine the lower pH to be tested: Three samples of the biphasic mixture during 1st NaCl-wash was taken and adjusted separately to pH 4, 5, and 6. These samples were refluxed overnight and sampled for HPLC purity at different time points. […] It was observed that at lower pH values, some white precipitate occurred. This precipitate dissolved upon raising the pH with NaOH. It was assumed that this was the hydrochloride salt of maribavir. Upon further review, at pH<5.5, the precipitate occurred. Therefore, the lowest pH tested was 6. The distilled reaction mixtures were subjected to crystallization on a 400 ml Easymax scale.

[3] = format: physicochemical
Procedure: The following solubility data was generated and referenced in one or more of the prior examples. A mixture of approx. 2 g of maribavir and 5 mL solvent was stirred overnight in sealed vials at different temperatures. The clear supernatant solutions were sampled for […] assay. All examples were done in triplicates. Table 3-5. Maribavir solubilities in iPrOAc and toluene.

## CC(C)Nc1nc2cc(Cl)c(Cl)cc2n1[C@H]1O[C@@H](CO)[C@H](O)[C@@H]1O [Maribavir, (2S,3S,4R,5S)-2-(5,6-dichloro-2-(isopropylamino)-1H-benzo[d]imidazol-1-yl)-5-(hydroxymethyl)tetrahydrofuran-3,4-diol]
[1]
  Stability (time found stable): at least 7 days
[2]
  Stability by HPLC purity (in words): perfect stability
[3]
  Solubility in iPrOAc (in words): good solubility
